Measurements taken from patent publication US20250011292A1, “NOVEL RHODANINE DERIVATIVES AND USES THEREOF” (priority 2021, published 2025).
Like-named read-outs stand apart in the source and are kept apart here.

What was measured:
SARS-CoV-2 = test: Inhibition of SARS-CoV-2 replication in infected Huh7 cells; assay type: cell-based; conditions: read-out: EC50, inhibition of viral replication against SARS-COV-2
Description: FIGS. 1A-1C are graphs showing the inhibition of SARS-CoV-2 replication in Huh-7 cells by BW-PS-108 (FIG. 1A), BW-PS-109 (FIG. 1B), and Compound 136 (FIG. 1C). The top line in FIGS. 1A and 1B represent cytotoxicity. Cell pellets from infected cells were collected at 48 hours after infection and viral RNA levels were measured by RT-PCR.
No solubility issues were encountered when studying their toxicity at 100 μM.
The potency levels of the compounds described herein compare favorably against remdesivir and molnupiravir. […] Further, the potency levels of the compounds described herein were also higher than Compound 136.

HeLa cells [1] = test: Light-induced and dark cytotoxicity, CCK-8 assay, HeLa cells; assay type: cell-based; conditions: for IC50: 24 hours, mean ± SD; for light-induced (photo-induced) cytotoxicity (in words): with or without blue light irradiation
Description: (§1) HeLa cells and MCF-7 cells were purchased from ATCC (Manassas, VA). HeLa cells were cultured in high glucose DMEM culture medium (Sigma-Aldrich; St. Louis, MO) with glutamine, without sodium pyruvate, and supplemented with 10% fetal bovine serum (FBS) and 1% penicillin and […]. MCF-7 cells were cultured in MEM culture medium (Sigma-Aldrich) supplemented with 10% FBS and 1% penicillin and […]. Cells were incubated in 37° C. incubator with 5% CO2. Under dim light, compounds were dissolved in DMSO to form 20 mM stock solution and serially diluted in 96-well plate with full culture medium to form the working solution with DMSO concentration being 0.5% in all wells. HeLa and MCF-7 cells were seeded in 96-well plate at a density of 10^5/100 μL/well and incubated overnight, and then the culture medium was replaced with 100 μL of the compound-loaded working solution. The dark treatment group was kept in the incubator for 24 hours. The exposure treatment group was allowed to incubate for 30 minutes, followed by exposure with blue light for the designated time (5 min for 0.45 J/cm^2). After exposure, cells were returned to the incubator and incubated for 24 hours. 10 μL CCK-8 solution (Dojindo, Japan) was added to the cells in each well and incubated for 2 hours. The optical density at 450 nm of each well was read with the Perkin-Elmer Vector 3 plate reader (USA). Cells treated with 0.5% DMSO were used as the vehicle control and 100 μL culture medium with 10 μL CCK-8 was used as the blank control. Cell viability was calculated as: […]
(§2) All tests were in triplicate, and the IC50 was calculated with non-linear regression of concentration and cell viability by Graphpad Prism.
BW-PS-101 was incubated with cervical carcinoma HeLa cell line under darkness. After incubation for 30 min to facilitate internalization, cells were exposed to a low-power blue LED array (470 nm, 1.5 mW/cm^2, as described above) for 5 minutes (total irradiation energy 0.45 J/cm^2) and incubated for an additional 24 hours under darkness followed by cell viability determination with CCK-8 assay.

MCF-7 cells = test: Light-induced and dark cytotoxicity, CCK-8 assay, MCF-7 cells; assay type: cell-based; conditions: 24 hours, mean ± SD
Description: FIGS. 3A-3K are graphs showing the dose response of compounds as described herein in MCF-7 cells. […] The cells were treated and allowed the incubate for 24 hours (labeled in the figures as the compound name followed by “DARK”) or were treated, incubated for 30 minutes, exposed to light for a designated time, and then incubated for 24 hours (labeled in the figures as the compound name followed by “EXPO”).
as §1, §2
Additional compounds as described herein were tested. […] Light-induced cytotoxicity was then evaluated. […] PS-107, a compound with the furan ring replaced by phenyl, was synthesized as the structural mimetic control. […] All compounds were also tested against MCF-7 breast cancer cell line, which gave a similar trend of activity (Table 4).

Quantum yield ϕΔ in MeOH = assay type: physicochemical
early endosomes = test: Fluorescence microscopy, endosome localization; assay type: cell-based; conditions: for accumulation / enrichment in endosomes: fluorescence microscopy / imaging studies
Description: FIG. 8 are fluorescence microscopy images of BW-PS-105 (first row), BW-PS-110 (second row), and BW-PS-120 (third row) localized in early endosomes.
The trimethoxy substituted analog BW-PS-105, which was fluorescent with an Ex/Em wavelength of 491 nm/574 nm, was incubated with HeLa cell at a concentration of 1 μM. […] Endosome enrichment of the photosensitizer led to the potency increase of about 5 folds. Targeting photosensitizers to the endosome efficiently induces cancer cell apoptosis by photodynamic therapy.

HeLa cells [2] = test: Light-induced and dark cytotoxicity, CCK-8 assay, HeLa cells; assay type: cell-based; conditions: light energy 1.8 J/cm^2
[3] = viral RNA by RT-PCR 48 hours after infection
[4] = blue light, exposure light energy density 0.45 J/cm^2, read-out: Hela cells Exposure IC50
[5] = dark, read-out: Hela cells Dark IC50
[6] = blue light, exposure light energy density 0.45 J/cm^2, read-out: MCF-7 cells Exposure IC50
[7] = dark, read-out: MCF-7 cells Dark IC50
[8] = Homo sapiens, HeLa, light or radiation study, blue light, exposure light energy density 0.45 J/cm^2, read-out: Hela cells Exposure IC50
[9] = Homo sapiens, HeLa, dark, read-out: Hela cells Dark IC50
[10] = Homo sapiens, MCF7, light or radiation study, blue light, exposure light energy density 0.45 J/cm^2, read-out: MCF-7 cells Exposure IC50
[11] = Homo sapiens, MCF7, dark, read-out: MCF-7 cells Dark IC50

Structure (SMILES) | IC50 (HeLa cells [1]; [4]) [µM] | IC50 (HeLa cells [1]; [5]) [µM] | IC50 (MCF-7 cells; [6]) [µM] | IC50 (MCF-7 cells; [7]) [µM] | ϕΔ MeOH) (Quantum yield ϕΔ in MeOH) | IC50 (HeLa cells [1]; [8]) [µM] | IC50 (HeLa cells [1]; [9]) [µM] | IC50 (MCF-7 cells; [10]) [µM] | IC50 (MCF-7 cells; [11]) [µM] | other results
CCC(CC)COC(=O)[C@H](C)N[P@](=O)(OC[C@H]1O[C@@](C#N)(c2ccc3c(N)ncnn23)[C@H](O)[C@@H]1O)Oc1ccccc1 [remdesivir, reference compound] |  |  |  |  |  |  |  |  |  | EC50 (SARS-CoV-2; Severe acute respiratory syndrome coronavirus 2, Huh-7, viral RNA by RT-PCR 48 hours after infection): 0.7 µM
O=C1C(=Cc2ccc(-c3ccc(C(F)(F)F)cc3)o2)SC(=S)N1CCN1CCOCC1 [BW-PS-109] | 0.63 ± 0.07 | > 100 | 0.53 ± 0.09 | > 100 | 0.115 |  |  |  |  | EC50 (SARS-CoV-2; [3]): 0.19 µM
N.N.[Cl][Pt][Cl] [Cisplatin, cisplatin, reference compound] | 5.95 ± 0.17 | 7.54 ± 0.45 | 13.3 ± 1.45 | 12.5 ± 2.86 |  |  |  |  |  | 
COc1cc(-c2ccc(C=C3SC(=S)N(CCN4CCOCC4)C3=O)o2)cc(OC)c1OC [BW-PS-110] | 1.74 ± 0.16 | > 100 | 1.25 ± 0.17 | > 100 |  |  |  |  |  | co-localization with the endosome marker CellularLight endosomes-GFP (early endosomes; fluorescence microscopy): good co-localization; accumulation / enrichment in endosomes (early endosomes): accumulation
CCCN1C(=O)/C(=C/c2ccc(-c3ccc(C(F)(F)F)cc3)o2)SC1=S [BW-PS-106, (Z)-3-propyl-2-thioxo-5-((5-(4-(trifluoromethyl)phenyl)furan-2-yl)methylene)thiazolidin-4-one] |  |  |  |  | 0.182 | 2.96 ± 0.09 | > 100 | 2.58 ± 0.73 | > 100 | 
CCCN1C(=O)/C(=C/c2ccc(-c3ccc(O)cc3)o2)SC1=S [BW-PS-103, (Z)-5-((5-(4-hydroxyphenyl)furan-2-yl)methylene)-3-propyl-2-thioxothiazolidin-4-one] |  |  |  |  | 0.007 | 3.58 ± 0.13 | > 100 | 4.25 ± 0.17 | ~100 | 
CCCN1C(=O)/C(=C/c2ccc(-c3ccc(OC)cc3)o2)SC1=S [BW-PS-104, (Z)-5-((5-(4-methoxyphenyl)furan-2-yl)methylene)-3-propyl-2-thioxothiazolidin-4-one] |  |  |  |  | 0.015 | 2.71 ± 0.23 | > 100 | 2.87 ± 0.92 | > 100 | 
O=C1C(=Cc2ccc(-c3ccccc3)o2)SC(=S)N1CCN1CCOCC1 [BW-PS-108] | 0.95 ± 0.02 | > 100 | 1.22 ± 0.01 | > 100 | 0.086 |  |  |  |  | EC50 (SARS-CoV-2; [3]): 0.28 µM
CCCN1C(=O)/C(=C/c2ccc(-c3cc(OC)c(OC)c(OC)c3)o2)SC1=S [BW-PS-105, (Z)-3-propyl-2-thioxo-5-((5-(3,4,5-trimethoxyphenyl)furan-2-yl)methylene)thiazolidin-4-one] |  |  |  |  | 0.028 | 2.13 ± 0.3 | > 100 | 2.71 ± 0.78 | > 100 | accumulation / enrichment in endosomes (early endosomes): accumulation
CCCN1C(=O)/C(=C/c2cccc(-c3ccc(F)cc3)c2)SC1=S [BW-PS-107, (Z)-5-((4′-fluoro-[1,1′-biphenyl]-3-yl)methylene)-3-propyl-2-thioxothiazolidin-4-one] |  |  |  |  |  | > 100 |  | > 100 |  | light-induced (photo-induced) cytotoxicity (in words) (HeLa cells [1]): did not show any photo-induced cytotoxicity
CCCN1C(=O)/C(=C/c2ccc(-c3ccc(F)cc3)o2)SC1=S [BW-PS-102, (Z)-5-((5-(4-fluorophenyl)furan-2-yl)methylene)-3-propyl-2-thioxothiazolidin-4-one] |  |  |  |  | 0.075 | 1.48 ± 0.14 | > 100 | 1.26 ± 0.004 | > 100 | light-induced (photo-induced) cytotoxicity (in words) (HeLa cells [1]): comparable activity as BW-PS-101
CCCN1C(=O)/C(=C/c2ccc(-c3ccccc3)o2)SC1=S [BW-PS-101, (Z)-5-((5-phenylfuran-2-yl)methylene)-3-propyl-2-thioxothiazolidin-4-one] |  |  |  |  | 0.109 | 1.38 ± 0.05 | > 100 | 0.74 ± 0.14 | > 100 | cytotoxicity of cells treated in the dark (in words) (HeLa cells [1]; HeLa, dark, up to 100 μM): did not show any cytotoxicity; IC50 in the HeLa cell at higher light energy (HeLa cells [2]): submicromolar range
